Experimental data taken from US20130224126A1, “Oral Care Product and Methods of Use and Manufacture Thereof” (Colgate-Palmolive Company, priority 2010, published 2013).

Test system: bacteria/yeast and mold
Test: Antimicrobial Preservation Effectiveness Test (micro robustness), double challenge test
Assay type: cell-based
Conditions: in the mouthwash formulations, separately or in combination
Experimental: The Antimicrobial Preservation Effectiveness Test is used to determine the antimicrobial preservation effectiveness of water-based product formulations by means of a double challenge test. Products are developed to withstand microbial challenges introduced by normal consumer use. The test is run on an aged sample (13 weeks, 40° C.). The test uses two pools of microorganisms: bacteria/yeast and mold. The product is challenged at a 1% level at day 0 and at day 7. Reduction of the inoculum is monitored over a 28 day period. The following are the acceptance criteria for mouth wash formulas. • Bacteria and yeast must show a 99.9% reduction (3 logs) of the bacterial inoculum as determined by plate count on day 7 following each inoculation. No increase after day 7 of the second inoculation and for the remainder of the test within normal variation of the data. • Mold must show a 90.0% reduction (1 log) of the mold inoculum as determined by the plate count on day 14 following the second inoculation (day 21). No increase from day 14 to day 21 of the second inoculation of the test within normal variation of the data.

Row | Compound | microbial control
1 | OCc1ccccc1 [Benzyl alcohol, benzyl alcohol] | acceptable
2 | Cn1sccc1=O [MIT, methylisothiazolinone] | acceptable
